Experimental data taken from patent US10087188B2, “Benzamide imidazopyrazine Btk inhibitors” (MERCK SHARP & DOHME CORP., priority 2014, dated 2018).

Legend:
HeLa cells = test: [3H] Adenosine uptake assay; format: cell-based; conditions: Homo sapiens, HeLa, accumulation of tritiated adenosine into HeLa cells; compound concentration range 10 μM to 0.032 nM; read-out: ADU inhibition IC50 (adenosine uptake inhibition potency)
Experimental: Compounds are also screen in an adenosine uptake functional cellular assay using the protocol described below:
[^3H] Adenosine Uptake Assay Methods
Adenosine uptake activity was determined by monitoring the accumulation of tritiated adenosine into HeLa cells (ATCC catalog #CCL-2) using a PMT-based radiometric detection instrument. […] These cells were incubated overnight at 37° C. in a humidified atmosphere with 5% (v/v) CO2. After this time the growth medium was removed and replaced with 40 μL assay medium comprising: Hanks balanced salts solution (HBSS; Thermo Fisher Catalog #SH30268.01)+5% (v/v) FBS. Compound stock solutions in DMSO were diluted in assay medium to 2.5× final compound concentration maintaining a constant DMSO concentration of 0.25% (v/v). 40 μL of compound in assay medium was dispensed into individual wells of the Cytostar-T plates and the plates were incubated for 30 minutes under ambient laboratory conditions. Following this incubation, 20 μL of 500 nM[^3H] adenosine (American Radiolabeled Chemicals Inc. Catalog #ART0287) in assay medium was added and incubated for a further 60 minutes under ambient laboratory conditions. The amount of radiolabel accumulation was then determined using a Perkin Elmer Topcount NXT microplate reader. In brief, HeLa cells adhere to the bottom of the Cytostar-T plate, uptake of [^3H]adenosine into these cells brings the radiolabel into sufficient proximity to excite the scintillant in the base of the plates. These events are captured by single PMT, time-resolved coincidence counting. IC50 values were determined by 4 parameter robust fit of counts per second values vs. (Log10) compound concentrations.

[1] = molecular target: BTK enzyme (recombinant full-length BTK, hBTK) (Homo sapiens (Human), UniProt Q06187); test: Btk enzyme activity assay, LANCE TR-FRET; format: biochemical; conditions: 50 pM hBTK, 2 μM biotin-A5-peptide, 25 μM ATP; 60 minute compound & enzyme incubation; read-out: BTK binding IC50
Experimental: Btk Enzyme Activity Assay Methods
BTK enzymatic activity was determined with the LANCE (Lanthanide Chelate Excite) TR-FRET (Time-resolved fluorescence resonance energy transfer) assay. […] After 60 minutes incubation with detection reagents, reaction plates were read on a PerkinElmer EnVision plate reader using standard TR-FRET protocol.

Sequence of BTK enzyme (recombinant full-length BTK, hBTK) (Q06187 whole entry): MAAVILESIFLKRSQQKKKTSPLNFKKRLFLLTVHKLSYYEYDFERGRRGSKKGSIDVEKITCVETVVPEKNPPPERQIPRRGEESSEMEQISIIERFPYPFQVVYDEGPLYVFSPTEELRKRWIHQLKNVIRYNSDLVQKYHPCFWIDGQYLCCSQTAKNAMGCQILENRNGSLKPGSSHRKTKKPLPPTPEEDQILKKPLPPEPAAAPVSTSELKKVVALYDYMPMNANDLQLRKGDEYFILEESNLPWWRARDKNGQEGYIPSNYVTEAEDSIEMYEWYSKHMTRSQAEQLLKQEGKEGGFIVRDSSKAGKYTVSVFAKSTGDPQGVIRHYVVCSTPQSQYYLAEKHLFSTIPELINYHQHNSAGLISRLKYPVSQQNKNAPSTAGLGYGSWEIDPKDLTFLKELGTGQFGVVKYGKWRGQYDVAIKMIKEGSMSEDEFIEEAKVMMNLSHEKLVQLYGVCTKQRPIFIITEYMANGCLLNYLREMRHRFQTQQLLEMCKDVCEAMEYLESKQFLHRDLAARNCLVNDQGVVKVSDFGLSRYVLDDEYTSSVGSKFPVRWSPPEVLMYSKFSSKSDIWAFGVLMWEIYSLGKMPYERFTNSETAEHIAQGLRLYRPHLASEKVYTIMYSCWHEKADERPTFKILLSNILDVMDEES

Row | Compound | IC50 (HeLa cells) [nM] | IC50 [1] [nM]
1 | CCOc1cc(C(=O)Nc2cc(C(F)(F)F)ccn2)ccc1-c1nc([C@@H]2CC[C@](C(=O)O)(C(C)C)C2)n2ccnc(N)c12 [Example 61, (1R,3R)-3-[8-amino-1-(2-ethoxy-4-{[4-(trifluoromethyl)pyridin-2-yl]carbamoyl}phenyl)imidazo[1,5-a]pyrazin-3-yl]-1-(1-methylethyl) cyclopentane-carboxylic acid] | 10000 | 2.4
2 | CCOc1cc(C(=O)Nc2cc(C(F)(F)F)ccn2)ccc1-c1nc([C@H]2CC[C@](C(=O)O)(C(C)C)C2)n2ccnc(N)c12 [Example 62, (1R,3S)-3-[8-amino-1-(2-ethoxy-4-{[4-(trifluoromethyl)pyridin-2-yl]carbamoyl}phenyl)imidazo[1,5-a]pyrazin-3-yl]-1-(1-methylethyl) cyclopentane-carboxylic acid] | 10000 | 12.2
3 | CCOc1cc(C(=O)Nc2cc(C(F)(F)F)ccn2)ccc1-c1nc([C@@]2(C)CC[C@@](C)(C(=O)O)C2)n2ccnc(N)c12 [Example 86, (1R,3S)-3-[8-amino-1-(2-ethoxy-4-{[4-(trifluoromethyl)pyridin-2-yl]carbamoyl}phenyl)imidazo[1,5-a]pyrazin-3-yl]-1,3-dimethylcyclopentane carboxylic acid] | 10000 | 4.2
4 | COc1cc(C(=O)Nc2cc(C(F)(F)F)ccn2)ccc1-c1nc(C2CCC(C)(C(=O)O)CC2)n2c(Cl)cnc(N)c12 (stereo not drawn) [Example 166, 4-[8-amino-5-chloro-1-(2-methoxy-4-{[4-(trifluoromethyl)pyridin-2-yl]carbamoyl}phenyl)imidazo[1,5-a]pyrazin-3-yl]-1-methylcyclohexane-carboxylic acid] | 10000 | 4.3
5 | CC1(C)CC(c2nc(-c3ccc(C(=O)Nc4cc(C(F)(F)F)ccn4)cc3)c3c(N)nccn23)CCC1C(=O)O (stereo not drawn) [Example 20, 4-(8-amino-1-(4-((4-(trifluoromethyl)pyridin-2-yl)carbamoyl)phenyl)imidazo[1,5-a]pyrazin-3-yl)-2,2-dimethylcyclohexanecarboxylic acid] | 5080 | 1.5
6 | Nc1nccn2c([C@@H]3CC[C@H](C(=O)NC4(C(=O)O)CC4)C3)nc(-c3ccc(C(=O)Nc4cc(C(F)(F)F)ccn4)cc3)c12 [Example 16, 1-[({(1S,3R)-3-[8-amino-1-(4-{[4-(trifluoromethyl)pyridin-2-yl]carbamoyl}phenyl)imidazo[1,5-a]pyrazin-3-yl]cyclopentyl}carbonyl)amino] cyclopropane-carboxylic acid] | 4780 | 2.1
7 | CCOc1cc(C(=O)Nc2cc(C(F)(F)F)ccn2)ccc1-c1nc([C@H]2CN(C3CCC(C)(C(=O)O)CC3)[C@@H](C)CO2)n2c(Cl)cnc(N)c12 (stereo partly drawn) [Example 189, 4-{(2R,5S)-2-[8-amino-5-chloro-1-(2-ethoxy-4-{[4-(trifluoromethyl)pyridin-2-yl]carbamoyl}phenyl)imidazo [1,5-a]pyrazin-3-yl]-5-methylmorpholin-4-yl}-1-methylcyclohexanecarboxylic acid] | 4840 | 1.9
8 | CC1(C)[C@@H](c2nc(-c3ccc(C(=O)Nc4cc(C(F)(F)F)ccn4)cc3)c3c(N)nccn23)CC[C@@]1(C)C(=O)O [Example 77, (1R,3S)-3-[8-amino-1-(4-{[4-(trifluoromethyl)pyridin-2-yl]carbamoyl}phenyl)imidazo[1,5-a]pyrazin-3-yl]-1,2,2-trimethylcyclopentane carboxylic acid] | 3920 | 4.6
9 | Nc1nccn2c([C@H]3CCN[C@@H](C(=O)O)C3)nc(-c3ccc(C(=O)Nc4cc(C(F)(F)F)ccn4)cc3)c12 [Example 31, (2R,4S)-4-[8-amino-1-(4-{[4-(trifluoromethyl)pyridin-2-yl]carbamoyl}phenyl)imidazo[1,5-a]pyrazin-3-yl]piperidine-2-carboxylic acid] | – | 2.6
10 | COc1cc(C(=O)Nc2cc(C(F)(F)F)ccn2)ccc1-c1nc([C@H]2CCC[C@@H](C(=O)O)C2)n2ccnc(N)c12 [Example 5, (1R,3S)-3-[8-amino-1-(2-methoxy-4-{[4-(trifluoromethyl)pyridin-2-yl]carbamoyl}phenyl)imidazo [1,5-a]pyrazin-3-yl]cyclohexane-carboxylic acid] | – | 40.9

These reach a lower IC50 [1]. Values come first.

Row | IC50 (HeLa cells) [nM] | IC50 [1] [nM] | Compound
11 | 8840 | 0.26 | COc1cc(C(=O)Nc2cc(C(F)(F)F)ccn2)cc(F)c1-c1nc([C@@H]2CC[C@](C)(C(=O)O)C2(C)C)n2ccnc(N)c12 [Example 115, (1S,3R)-3-[8-amino-1-(2-fluoro-6-methoxy-4-{[4-(trifluoromethyl)pyridin-2-yl]carbamoyl}phenyl)imidazo[1,5-a]pyrazin-3-yl]-1,2,2-trimethylcyclopentane carboxylic acid]
12 | 274 | 0.23 | Nc1nccn2c(C34CCCC(C(=O)O)(CC3)CC4)nc(-c3ccc(C(=O)Nc4cc(C(F)(F)F)ccn4)cc3)c12 [Example 68, 5-[8-amino-1-(4-{[4-(trifluoromethyl)pyridin-2-yl]carbamoyl}phenyl)imidazo[1,5-a]pyrazin-3-yl]bicyclo[3.2.2] nonane-1-carboxylic acid]
13 | 6880 | 0.29 | COc1cc(C(=O)Nc2cc(C(F)(F)F)ccn2)ccc1-c1nc(C23CCC(C(=O)O)(CC2)CC3)n2ccnc(N)c12 [Example 171, 4-[8-amino-1-(2-methoxy-4-{[4-(trifluoromethyl)pyridin-2-yl]carbamoyl}phenyl)imidazo[1,5-a]pyrazin-3-yl]bicyclo[2.2.2] octane-1-carboxylic acid]
14 | 8550 | 0.58 | CCOc1cc(C(=O)Nc2cc(C(F)(F)F)ccn2)ccc1-c1nc([C@H]2CC[C@@](C(=O)O)(C(C)C)C2)n2ccnc(N)c12 [Example 63, (1S,3S)-3-[8-amino-1-(2-ethoxy-4-{[4-(trifluoromethyl)pyridin-2-yl]carbamoyl}phenyl)imidazo[1,5-a]pyrazin-3-yl]-1-(1-methylethyl) cyclopentane-carboxylic acid]
15 | 10000 | 0.39 | Nc1nccn2c([C@@H]3CCC[C@H](C(=O)O)C3)nc(-c3ccc(C(=O)Nc4cc(C(F)(F)F)ccn4)cc3F)c12 [Example 10, (1S,3R)-3-[8-amino-1-(2-fluoro-4-{[4-(trifluoromethyl)pyridin-2-yl]carbamoyl}phenyl)imidazo [1,5-a]pyrazin-3-yl]cyclohexane-carboxylic acid]
16 | 1080 | 0.37 | CC1(C)[C@H](c2nc(-c3ccc(C(=O)Nc4cc(C(F)(F)F)ccn4)cc3)c3c(N)nccn23)CC[C@]1(C)C(=O)O [Example 69, (1S,3R)-3-[8-amino-1-(4-{[4-(trifluoromethyl)pyridin-2-yl]carbamoyl}phenyl)imidazo[1,5-a]pyrazin-3-yl]-1,2,2-trimethylcyclopentane carboxylic acid]
17 | 308 | 0.13 | Nc1nccn2c(C34CCC(C(=O)O)(CC3)CC4)nc(-c3ccc(C(=O)Nc4cc(C(F)(F)F)ccn4)cc3)c12 [Example 168, 4-[8-amino-1-(4-{[4-(trifluoromethyl)pyridin-2-yl]carbamoyl}phenyl)imidazo[1,5-a]pyrazin-3-yl]bicyclo[2.2.2] octane-1-carboxylic acid]
18 | 3240 | 0.51 | CC(C)[C@]1(C(=O)O)CC[C@H](c2nc(-c3ccc(C(=O)Nc4cc(C(F)(F)F)ccn4)cc3Cl)c3c(N)nccn23)C1 [Example 92, (1S,3S)-3-[8-amino-1-(2-chloro-4-{[4-(trifluoromethyl)pyridin-2-yl]carbamoyl}phenyl)imidazo[1,5-a]pyrazin-3-yl]-1-(1-methylethyl) cyclopentane-carboxylic acid]
19 | 5940 | 0.48 | CCOc1cc(C(=O)Nc2cc(C(F)(F)F)ccn2)cc(F)c1-c1nc([C@@H]2CC[C@](C)(C(=O)O)C2(C)C)n2ccnc(N)c12 [Example 113, (1S,3R)-3-[8-amino-1-(2-ethoxy-6-fluoro-4-{[4-(trifluoromethyl)pyridin-2-yl]carbamoyl}phenyl)imidazo[1,5-a]pyrazin-3-yl]-1,2,2-trimethylcyclopentane carboxylic acid]
20 | 3420 | 0.17 | C[C@@]1(C(=O)O)CC[C@@](C)(c2nc(-c3ccc(C(=O)Nc4cc(C(F)(F)F)ccn4)cc3F)c3c(N)nccn23)C1 [Example 136, (1R,3R)-3-[8-amino-1-(2-fluoro-4-{[4-(trifluoromethyl)pyridin-2-yl]carbamoyl}phenyl)imidazo[1,5-a]pyrazin-3-yl]-1,3-dimethylcyclopentane carboxylic acid]
21 | – | 1.4 | CCc1ccnc(NC(=O)c2ccc(-c3nc([C@@H]4CCC[C@H](C(=O)O)C4)n4ccnc(N)c34)cc2)c1 [Example 7, (1S,3R)-3-(8-amino-1-{4-[(4-ethylpyridin-2-yl)carbamoyl]phenyl}imidazo [1,5-a]pyrazin-3-yl)cyclohexane-carboxylic acid]
